Data from US7001907B2, “Peptide-containing α-ketoamide cysteine and serine protease inhibitors” (Cephaon, Inc., priority 1997, dated 2006).

Each molecule was assayed against T1, Recombinant human calpain I (Homo sapiens, UniProt P07384) (assay: Inhibition of cysteine protease activity: calpain I, Succ-Leu-Tyr-MNA substrate hydrolysis). Conditions: Table 2, linear α-ketoamides.
T1 construct: made in house
T1 sequence (P07384 1-714): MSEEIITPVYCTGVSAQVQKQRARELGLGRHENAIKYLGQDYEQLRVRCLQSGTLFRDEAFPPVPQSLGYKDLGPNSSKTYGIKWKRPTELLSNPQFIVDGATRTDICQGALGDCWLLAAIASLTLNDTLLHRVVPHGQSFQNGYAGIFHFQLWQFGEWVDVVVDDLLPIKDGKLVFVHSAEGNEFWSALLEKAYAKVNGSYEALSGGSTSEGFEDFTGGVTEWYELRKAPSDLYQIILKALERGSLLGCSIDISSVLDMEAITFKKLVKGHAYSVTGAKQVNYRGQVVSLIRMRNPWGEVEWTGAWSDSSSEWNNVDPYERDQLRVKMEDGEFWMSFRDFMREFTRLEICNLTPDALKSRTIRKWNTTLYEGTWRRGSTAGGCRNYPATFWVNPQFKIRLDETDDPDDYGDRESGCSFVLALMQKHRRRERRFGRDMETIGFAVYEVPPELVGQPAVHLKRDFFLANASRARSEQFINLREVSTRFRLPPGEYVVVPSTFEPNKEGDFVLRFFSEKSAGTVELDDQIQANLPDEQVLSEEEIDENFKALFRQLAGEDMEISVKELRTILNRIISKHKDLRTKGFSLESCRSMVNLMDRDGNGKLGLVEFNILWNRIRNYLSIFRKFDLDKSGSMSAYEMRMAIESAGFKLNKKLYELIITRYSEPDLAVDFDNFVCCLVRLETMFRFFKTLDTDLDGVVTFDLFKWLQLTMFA
T1 sequence (P04632 1-268 partner): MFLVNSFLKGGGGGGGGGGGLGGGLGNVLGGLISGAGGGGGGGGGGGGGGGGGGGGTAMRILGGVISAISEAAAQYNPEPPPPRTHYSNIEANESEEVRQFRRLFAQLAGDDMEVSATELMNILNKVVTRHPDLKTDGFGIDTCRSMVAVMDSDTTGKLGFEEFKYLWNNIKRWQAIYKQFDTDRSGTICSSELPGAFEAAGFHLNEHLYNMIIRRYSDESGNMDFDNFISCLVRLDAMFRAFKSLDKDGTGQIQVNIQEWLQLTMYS
Assay type: biochemical
Method: To evaluate inhibitory activity, stock solutions (40 times concentrated) of each compound to be tested were prepared in 100% anhydrous DMSO and 5 μl of each inhibitor preparation were aliquoted into each of three wells of a 96-well plate. Recombinant human calpain I, prepared by the method of Meyer et al. (Biochem. J. 1996, 314: 511–519; incorporated herein by reference in its entirety), was diluted into assay buffer (i.e., 50 mM Tris, 50 mM NaCl, 1 mM EDTA, 1 mM EGTA, and 5 mM β-mercaptoethanol, pH 7.5, including 0.2 mM Succ-Leu-Tyr-MNA), and 175 μl was aliquoted into the same wells containing the independent inhibitor stocks as well as to positive control wells containing 5 μl DMSO, but no compound. To start the reaction, 20 μl of 50 mM CaCl2 in assay buffer was added to all wells of the plate, excepting three, which were used as background signal baseline controls. Substrate hydrolysis was monitored every 5 minutes for a total of 30 minutes. Substrate hydrolysis in the absence of inhibitor was linear for up to 15 minutes.
Inhibition of calpain I activity was calculated as the percent decrease in the rate of substrate hydrolysis in the presence of inhibitor relative to the rate in its absence. Comparison between the inhibited and control rates was made within the linear range for substrate hydrolysis. The IC50s of inhibitors (concentration yielding 50% inhibition) were determined from the percent decrease in rates of substrate hydrolysis in the presence of five to seven different concentrations of the test compound. The results were plotted as percent inhibition versus log inhibitor concentration, and the IC50 was calculated by fitting the data to the four-parameter logistic equation shown below using the program GraphPad Prism (GraphPad Software, Inc., San Diego, Calif.). y=d+[(a−d)/(1+(x/c)^b)]
The parameters a, b, c, and d are defined as follows: a is % inhibition in the absence of inhibitor, b is the slope, c is the IC50, and d is the % inhibition at an infinite concentration of inhibitor.

Row | Structure (SMILES) | IC50 [nM]
1 | CS(=O)(=O)N[C@H](COCc1ccccc1)C(=O)N[C@@H](Cc1ccccc1)C(=O)C(=O)NCCNS(=O)(=O)c1ccc(-c2ccccc2)s1 [Compound 29] | 14
2 | CS(=O)(=O)NC(COCc1ccccc1)C(=O)NC(Cc1ccccc1)C(=O)C(=O)NCCNS(=O)(=O)c1ccc(-c2ccccc2)s1 (mixture of isomers) [Compound 42] | 14
3 | CS(=O)(=O)NC(COCc1ccccc1)C(=O)NC(Cc1ccccc1)C(=O)C(=O)NCCNS(=O)(=O)c1ccc(-c2cccc(N)c2)s1 (mixture of isomers) [Compound 44] | 31
4 | CN(C)Cc1ccc(S(=O)(=O)NCCNC(=O)C(=O)[C@H](Cc2ccccc2)NC(=O)[C@@H](COCc2ccccc2)NS(C)(=O)=O)cc1 [Compound 45] | 64
5 | CS(=O)(=O)N[C@H](COCc1ccccc1)C(=O)N[C@@H](Cc1ccccc1)C(=O)C(=O)NCCNS(=O)(=O)c1ccc(N)cc1 [Compound 22] | 42

Same assay, conditions: Table 2; 10 μM compound; values in brackets marked **

Row | Structure (SMILES) | Percent inhibition @ 10 μM (Calpain)
6 | O=C(NCCNS(=O)(=O)c1ccccc1)C(=O)[C@H](Cc1ccccc1)NC(=O)[C@H](Cc1ccccc1)NS(=O)(=O)c1ccccc1 [Compound 30] | (97%)

Same assay, conditions: Table 4, α-ketoamides

Row | Structure (SMILES) | IC50 [nM]
7 | CS(=O)(=O)N[C@H](COCc1ccccc1)C(=O)N[C@@H](Cc1ccccc1)C(=O)C(=O)NCCS(=O)(=O)Nc1ccccc1 [Compound 60] | 47
8 | CS(=O)(=O)N[C@H](COCc1ccccc1)C(=O)N[C@@H](Cc1ccccc1)C(=O)C(=O)NCCNS(=O)(=O)c1cccc(-c2csc(N)n2)c1 [Compound 51] | 29
9 | CS(=O)(=O)N[C@H](COCc1ccccc1)C(=O)N[C@@H](Cc1ccccc1)C(=O)C(=O)NCCNC(=NC#N)Oc1ccccc1 [Compound 53] | 15
10 | COCCN(CCOC)Cc1cccc(-c2ccc(S(=O)(=O)NCCNC(=O)C(=O)[C@H](Cc3ccccc3)NC(=O)[C@@H](COCc3ccccc3)NS(C)(=O)=O)s2)c1 [Compound 109] | 22
11 | CS(=O)(=O)N[C@H](COCc1ccccc1)C(=O)N[C@@H](Cc1ccccc1)C(=O)C(=O)NCCS(=O)(=O)Nc1ccc(C(F)(F)F)cc1 [Compound 61] | 32
12 | CN(C)Cc1cccc(-c2ccc(S(=O)(=O)NCCNC(=O)C(=O)[C@H](Cc3ccccc3)NC(=O)[C@@H](COCc3ccccc3)NS(C)(=O)=O)s2)c1 [Compound 54] | 12
13 | CS(=O)(=O)N[C@H](COCc1ccccc1)C(=O)N[C@@H](Cc1ccccc1)C(=O)C(=O)NCCNS(=O)(=O)c1ccc(-c2ccc(CN3CCOCC3)cc2)s1 [Compound 94] | 22
14 | CS(=O)(=O)N[C@H](COCc1ccccc1)C(=O)N[C@@H](Cc1ccccc1)C(=O)C(=O)NCCNS(=O)(=O)c1ccc(-c2cccc(C#N)c2)s1 [Compound 104] | 10
15 | CS(=O)(=O)N[C@H](COCc1ccccc1)C(=O)N[C@@H](Cc1ccccc1)C(=O)C(=O)NCCNS(=O)(=O)c1ccc(-c2ccccc2C=O)s1 [Compound 98] | 24
16 | CS(=O)(=O)N[C@H](COCc1ccccc1)C(=O)N[C@@H](Cc1ccccc1)C(=O)C(=O)NCCNS(=O)(=O)c1ccc(-c2cccc(CN3CCOCC3)c2)s1 [Compound 56] | 18
17 | CS(=O)(=O)N[C@H](Cc1ccccc1)C(=O)N[C@@H](Cc1ccccc1)C(=O)C(=O)NCCNS(=O)(=O)c1ccc(-c2ccccn2)s1 [Compound 71] | 18
18 | CS(=O)(=O)N[C@H](COCc1ccccc1)C(=O)N[C@@H](Cc1ccccc1)C(=O)C(=O)NCCNS(=O)(=O)c1ccc(CN2CCOCC2)cc1 [Compound 57] | 18
19 | CC(C)(C)OC(=O)NC1CCCC(NC(=O)C(=O)[C@H](Cc2ccccc2)NC(=O)[C@@H](COCc2ccccc2)NS(C)(=O)=O)C1 (stereo partly drawn) [Compound 55] | 42
20 | CN(CCNC(=O)C(=O)[C@H](Cc1ccccc1)NC(=O)[C@@H](COCc1ccccc1)NS(C)(=O)=O)S(=O)(=O)c1ccc(-c2cccc(C=O)c2)s1 [Compound 65] | 19
21 | CN(Cc1cccc(-c2ccc(S(=O)(=O)NCCNC(=O)C(=O)[C@H](Cc3ccccc3)NC(=O)[C@@H](COCc3ccccc3)NS(C)(=O)=O)s2)c1)C1CCCCC1 [Compound 102] | 36
22 | CS(=O)(=O)NC(COCc1ccccc1)C(=O)NC(Cc1ccccc1)C(=O)C(=O)NC1CCN(S(=O)(=O)c2ccc(CN3CCOCC3)cc2)CC1 (mixture of isomers) [Compound 78] | 48
23 | CC(=O)c1cccc(-c2ccc(S(=O)(=O)NCCNC(=O)C(=O)C(Cc3ccccc3)NC(=O)C(COCc3ccccc3)NS(C)(=O)=O)s2)c1 (mixture of isomers) [Compound 77] | 10
24 | CS(=O)(=O)NC(COCc1ccccc1)C(=O)NC(Cc1ccccc1)C(=O)C(=O)NCCNS(=O)(=O)c1ccc(-c2cccc(C#N)c2)s1 (mixture of isomers) [Compound 110] | 11
25 | CS(=O)(=O)NC(COCc1ccccc1)C(=O)NC(Cc1ccccc1)C(=O)C(=O)NC1CCN(S(=O)(=O)c2ccc(-c3ccccn3)s2)CC1 (mixture of isomers) [Compound 107] | 23
26 | CS(=O)(=O)NC(COCc1ccccc1)C(=O)NC(Cc1ccccc1)C(=O)C(=O)NCCNS(=O)(=O)c1ccc(CN2CC=CC2)cc1 (mixture of isomers) [Compound 111] | 73
27 | CS(=O)(=O)NC(C(=O)NC(Cc1ccccc1)C(=O)C(=O)NCCNS(=O)(=O)c1ccc(-c2ccccn2)s1)c1ccccc1 (mixture of isomers) [Compound 68] | 21
28 | COCC1CCCN1Cc1ccc(S(=O)(=O)NCCNC(=O)C(=O)[C@H](Cc2ccccc2)NC(=O)[C@@H](COCc2ccccc2)NS(C)(=O)=O)cc1 (stereo partly drawn) [Compound 91] | 19
29 | CC(C)C[C@H](NC(=O)OCc1ccccc1)C(=O)N[C@@H](CC(C)C)C(=O)N[C@@H](Cc1ccccc1)C(=O)C(=O)NCCNS(=O)(=O)c1ccc(-c2ccccn2)s1 [Compound 88] | 33
30 | CCN(CC)Cc1cccc(-c2ccc(S(=O)(=O)NCCNC(=O)C(=O)[C@H](Cc3ccccc3)NC(=O)[C@@H](COCc3ccccc3)NS(C)(=O)=O)s2)c1 [Compound 101] | 22

Same assay, conditions: Table 4; 0.1 μM compound; value in brackets marked *

Row | Structure (SMILES) | Percent inhibition @ 0.1 μM (Calpain)
31 | CS(=O)(=O)N[C@H](COCc1ccccc1)C(=O)N[C@@H](Cc1ccccc1)C(=O)C(=O)NC1CCC(=O)NC1 (stereo partly drawn) [Compound 64] | (33)* Percent

Same assay, conditions: Table 5, achiral P2 mimetic α-ketoamides

Row | Structure (SMILES) | IC50 [nM]
32 | CC(CCC(=O)N[C@@H](Cc1ccccc1)C(=O)C(=O)NCCNS(=O)(=O)c1ccc(-c2ccccn2)s1)c1ccccc1 (stereo partly drawn) [Compound 148] | 87
33 | CC(C)C(=O)N[C@@H](Cc1ccccc1)C(=O)C(=O)NCCNS(=O)(=O)c1ccc(-c2ccccn2)s1 [Compound 143] | 1500
34 | O=C(NCCNS(=O)(=O)c1ccc(-c2ccon2)s1)C(=O)[C@H](Cc1ccccc1)NC(=O)c1c(F)cccc1Cl [Compound 140] | 58
35 | CCc1cccc(CC)c1C(=O)N[C@@H](Cc1ccccc1)C(=O)C(=O)NCCNS(=O)(=O)c1ccc(-c2ccon2)s1 [Compound 137] | 145
36 | CC(C)CCC(=O)N[C@@H](Cc1ccccc1)C(=O)C(=O)NCCNS(=O)(=O)c1ccc(-c2cccc(C#N)c2)s1 [Compound 150] | 15
37 | O=C(NCCNS(=O)(=O)c1ccc(-c2ccccn2)s1)C(=O)[C@H](Cc1ccccc1)NC(=O)c1ccc2c(c1)OCO2 [Compound 123] | > 1000
38 | O=C(NCCNS(=O)(=O)c1ccc(-c2ccccn2)s1)C(=O)[C@H](Cc1ccccc1)NC(=O)c1cc(C(F)(F)F)cc(C(F)(F)F)c1 [Compound 126] | 600
39 | CC(C)CC(=O)N[C@@H](Cc1ccccc1)C(=O)C(=O)NCCNS(=O)(=O)c1ccc(-c2ccccn2)s1 [Compound 144] | 590
